Data: US20040258772A1, “Methods of treating angiogenesis, tumor growth, and metastasis” (priority 2002, published 2004)
“Also recorded” adds a separate entry of the source.

Legend:
[1] = system: Human adenocarcinoma cells (A549); assay type: cell-based; settings: 250 ppm CO
Description: (§1) A human adenocarcinoma cell line designated A549, a murine mesothelioma cell line designated AC29, and a human colon cancer cell line designated HCT were utilized for the studies described herein.
(§2) Cell cultures and mice were exposed to CO at a concentration of 250 ppm. Briefly, 1% CO in air was mixed with air (21% oxygen) in a stainless steel mixing cylinder and then directed into a 3.70 ft^3 glass exposure chamber at a flow rate of 12 L/min. A CO analyzer (Interscan, Chatsworth, Calif.) was used to measure CO levels continuously in the chamber. CO concentrations were maintained at 250 ppm at all times. Cell cultures and mice were placed in the exposure chamber as required.
(§3) For [^3H] thymidine incorporation studies, cells were serum-starved overnight and then stimulated with 20% serum containing 5 mCi/ml [^3H] thymidine (New England Nuclear, Boston, Mass.). [^3H] thymidine incorporation was measured by scintillation spectroscopy. CO inhibits the growth of cancer cells in vitro Human and mouse cancer cell lines were used to investigate the effect of CO on growth rates of the cells in culture. Human adenocarcinoma cells (A549), mouse mesothelioma cells (AC29), and A549 and AC29 cells transformed with the heme oxygenase-1 (HO-1) gene (which causes the cells to overexpress HO-1) were exposed to low levels of CO (250 ppm) in culture. Four-day growth curves were generated.

A549 cells [2] = test: [3H] thymidine uptake, cGMP dependence of CO-induced growth arrest; assay type: cell-based, human; settings: CO 250 ppm 3 hours before and 24 hours after serum; compared to CO alone
Protocol: as §3
The cellular mechanisms by which CO causes inhibition were also investigated. To investigate whether CO-induced growth arrest is CGMP dependant, A549 cells were exposed to air, CO, CO+ODQ, or CO+Rp-8-BR. […] The ability of the cells to proliferate was determined by measuring the uptake of [3H] thymidine by the cells (FIG. 5). Cells were exposed to CO (250 ppm) for 3 hours prior to the addition of serum and [3H] thymidine (5 mCi/ml). After the addition of serum and [3H] thymidine, cells were maintained in CO for 24 hours. Cells were then rinsed, fixed and examined by scintillation spectroscopy.

AC29 cells = test: Mesothelioma (AC29) survival model, cells injected intraperitoneally; assay type: in vivo, CBA mice
Description: (§4) For human tumor studies, female SCID mice (weighing 20 to 30 g) were purchased from Taconic (White Plains, N.Y.) and allowed to acclimate for 1 week prior to experimentation. For murine tumor and matrigel studies, male CBA and C57B1/6 mice (weighing 25 to 30 g) were purchased form Jackson Labs (Bar Harbor, Me.) and also were allowed to acclimate for 1 week prior to experimentation.
as §2
The first was a mesothelioma (AC29) model, wherein CBA mice were injected with 1×10^6 AC29 cells intraperitoneally and monitored for survival when continuously exposed to air or to an atmosphere containing 250 ppm CO for a period of six weeks. […] The survival rate of the CO-exposed mice was increased by greater than 90% as compared to air-exposed mice. The arrow shown in FIG. 3 denotes a time point at which half of the CO-exposed mice were removed from the CO chamber. Half of the mice were removed at that time to determine whether the effects of CO on mouse survival require continuous exposure to CO. A significant number of mice (50%, p<0.02) that were removed from the CO-containing atmosphere remained alive at the end of the experiment, whereas all air treated mice died by day 36. The number of mice in each group was 12 to 20 animals.
In another experiment, it was shown that CO-exposed mice survived for greater than 65 days (data not shown).

[3] = system: mouse mesothelioma cells (AC29); test: Growth curves of cancer cells in culture exposed to CO; assay type: cell-based
Description: as §1, §2
as §3, with “Four-day growth curves were generated.” left out

[4] = system: VEGF production by A549 cells; test: VEGF production by ELISA; assay type: cell-based, human; settings: CO plus air for 24 to 48 hours vs air alone
Protocol: ELISA kits for VEGF levels were purchased from R&D Systems and used according to the manufacturer's directions.
Whether CO inhibits production of VEGF, a growth factor that contributes to angiogenesis by promoting blood vessel growth, was investigated. A549 cells were exposed to air or CO plus air for 24 to 48 hours in vitro, and VEGF production by A549 cells was detected using an enzyme-linked immunosorbent assay (ELISA).

HTC cells = test: [3H] thymidine uptake in wild-type and p21-deficient colon cancer cells; assay type: cell-based, human; settings: p21-/- HTC cells versus wild type
Protocol: as §3
Wild-type (Wt) HTC cells and HTC cells deficient in p21 (p21−/−), a gene known to control cell growth, were exposed to air or CO to determine whether p21 is involved in CO-induced growth arrest (FIG. 6). As indicated by [^3H] thymidine uptake, CO-induced growth arrest appears less marked in HTC cells that are deficient in p21.

A549 cells [5] = test: Adenocarcinoma (A549) subcutaneous tumor model; assay type: in vivo, SCID mice
Description: as §4, §2
The second model was an adenocarcinoma (A549) model, wherein SCID mice were injected with 1×10^6 A549 cells subcutaneously. These animals were continuously exposed to air or to 250 ppm of CO for a period of six weeks. After the six-week period, the volume of the tumors that developed in the mice was evaluated.

angiogenesis = test: Matrigel angiogenesis assay, FGF/heparin Matrigel implanted under the skin; assay type: in vivo, C57/B16 mice
Description: as §4, §2
The effect of CO (250 ppm) on angiogenesis was investigated using a Matri gel […] angiogenesis assay. A solubilized basement membrane matrix (Matrigel™) containing 20 ng/ml growth factor (FGF) and heparin was implanted under the skin of C57/B16 mice. The mice were then exposed to air or CO in air for two weeks. After the two-week period, the Matrigel™ was removed and examined.
In a separate experiment, Matrigel™ deposits containing 20 ng/ml growth factor (FGF) and heparin were implanted under the skin of C57/B16 mice, and the mice were exposed to air or CO (250 ppm) in air for 21 days. Photomicrographs of hematoxylin- and eosin-stained paraffin sections from the resected subcutaneous FGF-Matrigel deposits were prepared. Prominent angiogenesis was evident in deposits from air-exposed mice, as was a front of infiltrating vascular cells organizing into blood filled micro-capillaries (data not shown).

[6] = system: p21, p27, PCNA, Cdc25b, cyclin D1 in A549 cells; test: Immunoblot of growth/cell cycle proteins; assay type: cell-based, human
Protocol: Immunoblotting was performed to investigate protein expression by standard methods known in the art. Antibodies were purchased from Santa Cruz, StressGen and Cell Signaling.
To investigate CO-induced changes in the expression of various growth/cell cycle proteins in cancer cells, A549 cells were exposed for 24 hours to air or CO (250 ppm). After this period of exposure, cell lysates were collected from the cells and changes in protein expression in the lysates were examined by immunoblot.

[7] = system: A549 cells transformed to overexpress HO-1; test: A549 HO-1 overexpressing tumor model; assay type: in vivo, mice; settings: 50 μmol/kg s.c., data not shown
Protocol: The third model was also an A549 model, wherein mice were injected with A549 cells transformed to overexpress HO-1 (HO-1 clones A5 and L1). After the six-week period, the size and volume of tumors that developed in the mice were evaluated. […] Using Western blot analysis, the relative decrease in volume was determined to correlate with a relative decrease in expression of cyclin D1, a protein involved in the regulation of cell growth (data not shown).

SMILES: [C-]#[O+] [CO, carbon monoxide]
- toxicity as cause of reduced cell numbers ([1]; A549 and AC29 cultures, confluency eventually achieved): not due to toxicity
- reduction in cell number ([1]; by three days, compared to controls): > 40%
- uptake of [3H] thymidine (proliferation) (A549 cells [2]): growth arrest
- increase of survival rate (AC29 cells; 250 ppm CO, compared to air-exposed mice): greater than 90%
- survival (AC29 cells; CO treatment delayed until one week after injection of mesothelioma cells): prolonged the lives; also recorded: prolongs survival
- survival time (AC29 cells; another experiment, data not shown): greater than 65 days
- survival (AC29 cells; continuous 250 ppm CO for six weeks vs air): lived longer; also recorded: prolongs survival
- mice removed from CO-containing atmosphere alive at end of experiment (AC29 cells; half of CO-exposed mice removed from chamber, p<0.02, all air treated mice died by day 36): 50%
- reduction in cell number ([3]; 250 ppm CO, by three days, compared to controls): > 40%
- proliferation after removal from CO-containing atmosphere ([3]; cultures removed from CO at day 5): proliferate at a normal rate
- proliferation of AC29 cells ([3]; six-day growth curve, CO vs air): inhibits the proliferation
- VEGF production [4]: substantially less VEGF; also recorded: inhibits
- CO-induced growth arrest ([3H] thymidine uptake) (HTC cells): less marked
- tumor volume (A549 cells [5]; CO plus air vs air alone): reduced
- reduction of tumor volume (A549 cells [5]; continuous 250 ppm CO for six weeks, compared to air-exposed mice): greater than 50%
- cellularity and blood in Matrigel deposits (angiogenesis; 250 ppm CO in air for 21 days): paucity of cellularity and blood
- angiogenesis in Matrigel deposits (angiogenesis; 250 ppm CO in air for 21 days, H&E sections): No angiogenesis was evident
- angiogenesis in Matrigel (angiogenesis; 250 ppm CO in air for two weeks, data not shown): no new blood vessel growth
- expression of p21, p27, PCNA, Cdc25b and cyclin D1 ([6]; 250 ppm CO for 24 hours): causes changes in expression
- expression of p21 ([6]; CO for 4, 8 and 24 hours): causes changes in expression

SMILES: C=Cc1c2[n-]c(c1C)/C=c1\[n-]/c(c(C)c1C=C)=C\c1[n-]c(c(CCC(=O)O)c1C)/C=c1\[n-]c(c(C)c1CCC(=O)O)=C2.[Sn+4] [tin protoporphyrin]
- effect on the inhibition of tumor growth by HO-1 overexpression [7]: reversible
